Data on three compounds can be found in paper PMC3326647, “Single Enantiomer of YK-4-279 Demonstrates Specificity in Targeting the Oncogene EWS-FLI1” (Oncotarget, 2012).

pIC50: −log10 of the molar value. Read-outs that look alike come from different tables or passages of the source.

Assay type in all cases: cell-based
The test system of test [1] is TC32 cells. Kind of test: Cellular proliferation (WST) assay, TC32. To be noted: Homo sapiens, TC-32, 72 h; TC32, ESFT (Type 1); read-out: IC50 at 3 days (+/− SEM). The procedure: (§1) TC32, TC71, RDES, MMH-ES-1, STA-ET 7.2, A4573, and PC3 cells were grown in RPMI with 10% FBS and 1% HEPES. SKES cells were grown in McCoy's 5A medium with 15% FBS. MCF7, MDA-MB-231, PANC1, and ASPC1 cells were grown in colorless DMEM with 10% FBS. Cells were grown at a plating density of 5,000 – 15,000 cells/well, depending on cell line, in a 96-well plate. Small molecule or vehicle alone (DMSO) were added to cells in appropriate growth media the day after plating. After three days, viable cells were quantified using WST (Roche) according to the manufacturer's protocol. IC50 values were calculated by sigmoidal dose-response curve fit using Prism Graphpad 4.0.

Test [2] relates to PANC1 cells. Nature of the test: Cellular proliferation (WST) assay, PANC1. To be noted: Homo sapiens, PANC-1, 72 h; PANC1, pancreatic; read-out: IC50 at 3 days (+/− SEM). On the procedure:
as §1

The test system of test [3] is SKES cells. Kind of test: Cellular proliferation (WST) assay, SKES. As to conditions: 72 h, ESFT (Type 2), read-out: IC50 at 3 days (+/− SEM). The procedure: as §1
Test [4] concerns ASPC1 cells. Nature of the test: Cellular proliferation (WST) assay, ASPC1. To be noted: Homo sapiens, 72 h; ASPC1, pancreatic; read-out: IC50 at 3 days (+/− SEM). On the procedure: as §1
The test system of test [5] is RDES cells. Kind of test: Cellular proliferation (WST) assay, RDES. To be noted: for pIC50: RD-ES, 72 h, RDES, ESFT (Type 2), read-out: IC50 at 3 days (+/− SEM). On the procedure: as §1
For test [6], the system named is Cyclin D1b/D1a mRNA level in A673i cells. Kind of test: Quantitative RT-PCR of Cyclin D1b/D1a mRNA in A673i cells. As to conditions: 1μM, 8 hours. On the procedure:
A673i cells were treated with 1μM small molecule for 8 hours. Positive control cells were treated with tetracycline for 72 hours to knock down expression of EWS-FLI1. Total RNA was extracted using an RNeasy Micro Kit (Qiagen) and reverse transcribed using the Transcriptor First Strand cDNA Synthesis Kit (Roche) per the manufacturer's instructions. qPCR was performed using an Eppendorf Mastercycler Realplex with FastStart Universal SYBR Green Master with ROX (Roche) with primers for 18S, CyclinD1a, and CyclinD1b. Data were analyzed for expression relative to 18S using the comparative Ct method. Data from four separate experiments performed in duplicate were averaged.

Test [7] has as its target T1, EWS-FLI1 transcriptional activity (Homo sapiens, UniProt Q01543+Q01844).
T1 sequence (Q01844 1-264): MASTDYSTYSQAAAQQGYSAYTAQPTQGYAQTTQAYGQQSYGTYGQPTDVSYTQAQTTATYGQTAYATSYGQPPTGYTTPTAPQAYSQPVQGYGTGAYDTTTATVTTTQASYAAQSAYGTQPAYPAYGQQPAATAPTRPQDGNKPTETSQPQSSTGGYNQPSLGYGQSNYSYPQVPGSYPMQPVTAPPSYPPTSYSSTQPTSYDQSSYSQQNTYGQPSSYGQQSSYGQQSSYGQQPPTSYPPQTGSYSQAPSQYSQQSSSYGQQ
T1 sequence (Q01543 220-452): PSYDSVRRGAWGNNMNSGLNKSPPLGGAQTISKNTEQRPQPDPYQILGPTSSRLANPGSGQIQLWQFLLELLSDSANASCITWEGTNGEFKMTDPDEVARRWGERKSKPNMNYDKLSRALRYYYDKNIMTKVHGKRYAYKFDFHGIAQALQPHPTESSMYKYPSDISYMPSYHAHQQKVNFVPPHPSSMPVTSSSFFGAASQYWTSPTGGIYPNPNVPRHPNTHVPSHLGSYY
Kind of test: NR0B1-luciferase reporter assay in COS7 cells transfected with EWS-FLI1. To be noted: for luciferase activity compared to vehicle: COS7 cells, dose of 0.3μM. The procedure:
Cells were transiently transfected with the NR0B1 luciferase reporter and full length EWS-FLI1 into COS7 cells with Fugene-6 (Roche) according to the manufacturer's protocol. Two hours after transformation, cells were treated with 0.3, 1, and 3μM of YK-4-279, (S)-YK-4-279, and (R)-YK-4-279. Luciferase activity was measured 16 hours after treatment. Protein concentration was normalized by absorbance at 280nm. All luciferase assays were performed using a luciferase assay kit according to the manufacturer's protocol (Promega).

The subject of test [8] is A4573 cells. Kind of test: Cellular proliferation (WST) assay, A4573. To be noted: 72 h; A4573, ESFT (Type 3); read-out: IC50 at 3 days (+/− SEM). The procedure: as §1
In test [9] the test system is ESFT cell lines. Nature of the test: Cellular proliferation (WST) assay, panel of seven ESFT cell lines. To be noted: 72 h. On the procedure:
as §1

Test [10] concerns PC3 cells. Nature of the test: Cellular proliferation (WST) assay, PC3. To be noted: Homo sapiens, PC-3, 72 h, read-out: IC50 at 3 days (+/− SEM). On the procedure:
as §1

In test [11] the test system is TC71 cells. Nature of the test: Cellular proliferation (WST) assay, TC71. To be noted: for pIC50: TC-71, 72 h, TC71, ESFT (Type 1), read-out: IC50 at 3 days (+/− SEM). On the procedure:
as §1

In test [12] the test system is non-ESFT cell lines (PC3, MCF7, MDA-MB-231, PANC1, ASPC1). Nature of the test: Cellular proliferation (WST) assay, panel of five non-ESFT cell lines. As to conditions: 72 h. On the procedure: as §1
Test [13] relates to MMH-ES-1 cells. Nature of the test: Cellular proliferation (WST) assay, MMH-ES-1. As to conditions: 72 h; MMH-ES-1, ESFT (Type 2); read-out: IC50 at 3 days (+/− SEM). On the procedure: as §1
Setting [14] is: mean over seven ESFT cell lines, read-out: Mean IC50 at 3 days (+/− SEM).
[15] abbreviates: seven EWS-FLI1 expressing cell lines, three days, read-out: range of mean IC50 values across ESFT cell lines.
Setting [16] is: read-out: Mean IC50 at 3 days (+/− SEM), mean over five non-ESFT cell lines.

As to `COc1ccc(C(=O)C[C@]2(O)C(=O)Nc3c(Cl)ccc(Cl)c32)cc1` [(R)-YK-4-279], the pIC50 in test [1] was 4.79; in [2], 4.60; in test [3], 4.68; in test [4] it was < 4.52; in test [5], 4.90; in test [8] it was 4.93. In addition, the pIC50 is 4.73 in [9] (setting [14]); 4.59 to 4.93 in [9] (setting [15]); < 4.52 in test [10]; 4.68 in test [11]; < 4.52 in test [12] (setting [16]); 4.59 in test [13]. The “D1b/D1a mRNA ratio” value in [6] is reported as “maintained a D1b/D1a ratio equivalent to the vehicle treated cells”. For the same compound, the “luciferase activity compared to control” value in test [7] (COS7 cells, 0.3, 1 and 3μM) is reported as “did not show significant reduction from control”.

Turning to `COc1ccc(C(=O)C[C@@]2(O)C(=O)Nc3c(Cl)ccc(Cl)c32)cc1` [(S)-YK-4-279], the pIC50 is 6.55 in test [1]; 5.77 in [2]; 6.74 in test [3]; 5.09 in test [4]; 6.06 in test [5]; 6.64 in [8]. In addition, the pIC50 was 6.47 in test [9] (setting [14]); 6.06 to 6.80 in [9] (setting [15]); 5.42 in test [10]; 6.80 in [11]; 5.16 in [12] (setting [16]); 6.47 in test [13]. The entries for the “fold-difference in IC50 between the racemic and the active enantiomer” value in test [5] (RDES cells) and in [11] (TC71 cells) were 1.18 fold and “more than a log-fold difference”, respectively. Besides, the “D1b/D1a mRNA ratio” value in test [6] was “reduced this ratio to a level equivalent to the EWS-FLI1 reduction”. Moreover, in [6], the “more potent at the D1b/D1a reduction than racemic” value is listed as “approximately 35%”. Moreover, the “luciferase activity compared to vehicle” value in [7] is listed as “significantly reduced”.

Take `COc1ccc(C(=O)CC2(O)C(=O)Nc3c(Cl)ccc(Cl)c32)cc1` (stereo not drawn) [YK-4-279]: the pIC50 in [1] was 6.03; in [2] it was 5.82; in test [3], 6.48; in [4] it was 4.85; in test [5] it was 5.99; in test [8], 5.84. Also, the pIC50 in test [9] (setting [14]) was 5.99; in [9] (setting [15]), 5.74 to 6.48; in test [10], 5.31; in [11] it was 5.74; in [12] (read-out: Mean IC50 at 3 days (+/− SEM)), 5.05; in [13], 6.03. For the same compound, the “D1b/D1a mRNA ratio” value in [6] is given as “reduction in the D1b/D1a levels”. Besides, in test [7], the “luciferase activity compared to vehicle” value is reported as “not significant”.
